{"source": "PubChem BioAssay AID449762", "about": "(Southern Research Specialized Biocontainment Screening …, 2010)", "system": "M. tuberculosis H37Rv growth inhibition, 7H9 media", "test": "M. tuberculosis growth inhibition, HTS (AID 449762);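 also: bacterial growth assessed after seven days of incubation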", "conditions": "for IC90: measured here: IC90 growth inhibition", "note": "Records with an inconclusive call do not appear.", "data": [{"smiles": "COc1ccc(NC(=O)CN(C)CC(=O)Nc2sc3c(c2C(N)=O)CCC3)cc1", "values": [{"measurement": "IC50", "result": 49.9, "unit": "µM"}, {"measurement": "IC90", "result": 98, "unit": "µM"}]}, {"smiles": "O=C(CNC(=O)c1ccco1)OCc1ccc(C(=O)Oc2ccccc2)cc1", "values": [{"measurement": "IC50", "result": 4.52, "unit": "µM"}, {"measurement": "IC90", "result": 16.2, "unit": "µM"}]}, {"smiles": "CSc1nsc(SCC(=O)Nc2ccc(F)cc2F)n1", "values": [{"measurement": "IC50", "result": 19.8, "unit": "µM"}, {"measurement": "IC90", "result": 63.4, "unit": "µM"}]}, {"smiles": "CN(CC(=O)Nc1ccccc1Br)C(=O)c1cccnc1Nc1cccc(C(F)(F)F)c1", "values": [{"measurement": "IC50", "result": 32, "unit": "µM"}, {"measurement": "IC90", "result": 40.7, "unit": "µM"}]}, {"smiles": "CCOC(=O)CN[C@H]1CCC2C3CC=C4C[C@@H](O)CC[C@]4(C)C3CC[C@@]21C", "note": "(stereo not given in full)", "values": [{"measurement": "IC50", "result": 1.41, "unit": "µM"}, {"measurement": "IC90", "result": 8.37, "unit": "µM"}]}, {"smiles": "CCOc1ccc(-c2nn3c(-c4ccccc4)nnc3s2)cc1", "values": [{"measurement": "IC50", "result": 29.2, "unit": "µM"}, {"measurement": "IC90", "result": "> 100", "unit": "µM"}]}, {"smiles": "CC(C)OC(=O)CCCCCN1C(=O)CSC1=S", "values": [{"measurement": "IC50", "result": 3.5, "unit": "µM"}, {"measurement": "IC90", "result": 8.17, "unit": "µM"}]}, {"smiles": "CCOC(=O)c1ccc(N=c2sc(C(=O)OC)cc(=O)n2CCCN2CCOCC2)cc1", "values": [{"measurement": "IC50", "result": 4.52, "unit": "µM"}, {"measurement": "IC90", "result": 12, "unit": "µM"}]}, {"smiles": "CCOC(=O)N1CCC(N2Cc3cccc(C(=O)Nc4ccc(N(CC)CC)cc4C)c3C2=O)CC1", "values": [{"measurement": "IC50", "result": 45.1, "unit": "µM"}, {"measurement": "IC90", "result": 50.5, "unit": "µM"}]}, {"smiles": "c1cc(Nc2cccc3nccnc23)c2nccnc2c1", "values": [{"measurement": "IC50", "result": 9.75, "unit": "µM"}, {"measurement": "IC90", "result": 23.2, "unit": "µM"}]}, {"smiles": "CC(=O)n1cc(N(C(=O)CCl)c2ccc(Cl)cc2)c2ccccc21", "values": [{"measurement": "IC50", "result": 1.82, "unit": "µM"}, {"measurement": "IC90", "result": 3.99, "unit": "µM"}]}, {"smiles": "C(=N\\Nc1ncnc2sc3c(c12)CCC3)/c1cccs1", "values": [{"measurement": "IC50", "result": 5.84, "unit": "µM"}, {"measurement": "IC90", "result": 16.8, "unit": "µM"}]}, {"smiles": "COc1ccccc1NC(=O)CN1CCN(CC(=O)Nc2ccc3c(c2)OCO3)CC1", "values": [{"measurement": "IC50", "result": 14.8, "unit": "µM"}, {"measurement": "IC90", "result": 33.6, "unit": "µM"}]}, {"smiles": "COc1cc(NC(=O)c2ccc(COc3ccccc3Br)o2)cc(OC)c1OC", "values": [{"measurement": "IC50", "result": 44.3, "unit": "µM"}, {"measurement": "IC90", "result": "> 100", "unit": "µM"}]}, {"smiles": "COc1ccc(CNC[C@@H](CCCCN(C)Cc2ccc(OC)cc2)N2C[C@H](c3ccccc3)N(CCc3ccc(Cl)c(Cl)c3)C(=O)C2=O)cc1", "values": [{"measurement": "IC50", "result": 5.48, "unit": "µM"}, {"measurement": "IC90", "result": 8.71, "unit": "µM"}]}, {"smiles": "Cc1ccc(-n2nc3c(N4CCC(C(=O)NCc5ccccc5C)CC4)nnc(C)c3c2C)cc1", "values": [{"measurement": "IC50", "result": 46.9, "unit": "µM"}, {"measurement": "IC90", "result": 69, "unit": "µM"}]}, {"smiles": "Cc1ccc(OCCN2CCN(c3ncnc4sc(C)c(C)c34)CC2)cc1", "values": [{"measurement": "IC50", "result": 93.7, "unit": "µM"}, {"measurement": "IC90", "result": "> 100", "unit": "µM"}]}, {"smiles": "O=C1CC(/C=C/c2ccc(Cl)cc2)=Nc2ccccc2N1", "values": [{"measurement": "IC50", "result": 12.1, "unit": "µM"}, {"measurement": "IC90", "result": 14.1, "unit": "µM"}]}, {"smiles": "COc1ccc(-c2cc3n(n2)CCc2nc4ccccc4n2-3)cc1", "values": [{"measurement": "IC50", "result": 1.06, "unit": "µM"}, {"measurement": "IC90", "result": 5.92, "unit": "µM"}]}, {"smiles": "COC(=O)C1=C(C)NC(=O)/C1=C\\c1cc(C)n(-c2cccc(C)c2)c1C", "values": [{"measurement": "IC90", "result": "> 100", "unit": "µM"}]}, {"smiles": "CCOC(=O)c1nc2sc3c(c2c(=O)[nH]1)CCC(C)C3", "note": "(stereo not given)", "values": [{"measurement": "IC50", "result": 46.7, "unit": "µM"}, {"measurement": "IC90", "result": "> 100", "unit": "µM"}]}, {"smiles": "Cc1ccnc(NC(=O)CCc2c[nH]c3ccccc23)c1", "values": [{"measurement": "IC50", "result": 25.8, "unit": "µM"}, {"measurement": "IC90", "result": 54.4, "unit": "µM"}]}, {"smiles": "Cc1ccc(C)c(N/C(N)=N/c2nc(C)cc(C)n2)c1", "values": [{"measurement": "IC50", "result": 5.87, "unit": "µM"}, {"measurement": "IC90", "result": 6.72, "unit": "µM"}]}, {"smiles": "CC(C)(C)c1ccc(C(=O)CSc2n[nH]c(=O)[nH]c2=O)cc1", "values": [{"measurement": "IC50", "result": 7.69, "unit": "µM"}, {"measurement": "IC90", "result": 25.4, "unit": "µM"}]}, {"smiles": "CCOC(=O)c1sc2ncnc(NCC(c3cccs3)N(C)C)c2c1C", "note": "(stereo not given)", "values": [{"measurement": "IC50", "result": 34.9, "unit": "µM"}, {"measurement": "IC90", "result": 71.6, "unit": "µM"}]}, {"smiles": "Cc1ccc(C(C)C)c(OCC(=O)OCc2c(C)noc2C)c1", "values": [{"measurement": "IC50", "result": 2.86, "unit": "µM"}, {"measurement": "IC90", "result": 3.29, "unit": "µM"}]}, {"smiles": "COc1ccc(CNc2ncnc3c2[nH]c2cc(OC)c(OC)cc23)cc1", "values": [{"measurement": "IC50", "result": 5.2, "unit": "µM"}, {"measurement": "IC90", "result": 14.9, "unit": "µM"}]}, {"smiles": "COc1ccc(C2Oc3ccccc3C3=C2C(c2cccs2)n2ncnc2N3)cc1", "note": "(stereo not given)", "values": [{"measurement": "IC50", "result": 51.2, "unit": "µM"}, {"measurement": "IC90", "result": "> 100", "unit": "µM"}]}, {"smiles": "Cc1cc(/C=C(/C#N)c2cccc(F)c2)c(C)n1-c1cccnc1", "values": [{"measurement": "IC90", "result": "> 100", "unit": "µM"}]}, {"smiles": "Cc1c(C(=O)Nc2nc3ccccc3[nH]2)oc2c(Cl)cccc12", "values": [{"measurement": "IC50", "result": 68, "unit": "µM"}, {"measurement": "IC90", "result": "> 100", "unit": "µM"}]}, {"smiles": "CCN(CC)Cc1nc2c(c(=O)[nH]1)C(CC)(CC)Cc1ccccc1-2", "values": [{"measurement": "IC50", "result": 4.46, "unit": "µM"}, {"measurement": "IC90", "result": 18.4, "unit": "µM"}]}, {"smiles": "CCCCn1nc(C(=O)Nc2ccccc2N2CCCC2)c2ccccc2c1=O", "values": [{"measurement": "IC50", "result": 11.8, "unit": "µM"}, {"measurement": "IC90", "result": "> 100", "unit": "µM"}]}, {"smiles": "CC1CCc2c(C(=O)Nc3nccs3)csc2C1", "note": "(stereo not given)", "values": [{"measurement": "IC50", "result": 7.27, "unit": "µM"}, {"measurement": "IC90", "result": 22.8, "unit": "µM"}]}, {"smiles": "Oc1cc(Nc2ccccc2)cc2cccnc12", "values": [{"measurement": "IC50", "result": 13.8, "unit": "µM"}, {"measurement": "IC90", "result": 26.6, "unit": "µM"}]}, {"smiles": "Cn1nc(-c2ccccc2F)c2cc(C(=O)Nc3ccc4c(c3)OCCO4)sc21", "values": [{"measurement": "IC50", "result": 17.7, "unit": "µM"}, {"measurement": "IC90", "result": 35.5, "unit": "µM"}]}, {"smiles": "N#Cc1c(-c2ccccc2)c(-c2ccccc2)nn(CC(=O)NNC(=O)Nc2ccc(Cl)c(Cl)c2)c1=O", "values": [{"measurement": "IC50", "result": 49.2, "unit": "µM"}, {"measurement": "IC90", "result": 55.5, "unit": "µM"}]}, {"smiles": "Fc1nc(F)c(F)c(NCCCNc2c(F)c(F)nc(F)c2F)c1F", "values": [{"measurement": "IC50", "result": 37.7, "unit": "µM"}, {"measurement": "IC90", "result": "> 100", "unit": "µM"}]}, {"smiles": "Clc1cc(Cl)cc(Nc2ncn[nH]2)c1", "values": [{"measurement": "IC50", "result": 24.1, "unit": "µM"}, {"measurement": "IC90", "result": "> 100", "unit": "µM"}]}, {"smiles": "CC(C)OC(=O)/C(C#N)=C/c1ccc(-c2ccc(SC(F)F)cc2)o1", "values": [{"measurement": "IC50", "result": 5.28, "unit": "µM"}, {"measurement": "IC90", "result": 16.8, "unit": "µM"}]}, {"smiles": "CNC(CC(C)C)C(=O)NC1C(=O)NC(CC(N)=O)C(=O)NC2C(=O)NC3C(=O)NC(C(=O)NC(C(=O)O)c4cc(O)cc(O)c4-c4cc3ccc4O)C(O)c3ccc(c(Cl)c3)Oc3cc2cc(c3OC2OC(CO)C(O)C(O)C2OC2C[C@](C)(N)C(O)C(C)O2)Oc2ccc(cc2Cl)C1O", "note": "(stereo not given in full)", "values": [{"measurement": "IC50", "result": 1.01, "unit": "µM"}, {"measurement": "IC90", "result": 4.42, "unit": "µM"}]}, {"smiles": "CC1CCCC(NC(=O)NC(=O)CCl)C1C", "note": "(stereo not given)", "values": [{"measurement": "IC50", "result": 3.25, "unit": "µM"}, {"measurement": "IC90", "result": 7.38, "unit": "µM"}]}]}
